Measurements taken from ChEMBL document CHEMBL1122657, “Dopaminergic agonists: comparative actions of amine and sulfonium analogues of dopamine” (J Med Chem, 1984).

How the values were obtained:
Format in all cases: functional
[1] = organism: Mus musculus; test: Compound concentration that causes inhibition of [3H]-acetyl choline release by 50% was determined using reserpine-alpha MPT treated mice striatal slices
[2] = Effect (3.0 uM) on K+-evoked release of [3H]acetylcholine from striatal slices of reserpine-alpha MPT treated mice evoked by two successive exposures (S1and S2) at 55 and 90 min after the start of perfusion.
[3] = Effect (0.0 uM) on K+-evoked release of [3H]acetylcholine from striatal slices of reserpine-alpha MPT treated mice evoked by two successive exposures (S1and S2) at 55 and 90 min after the start of perfusion.
[4] = Effect (1.0 uM) on K+-evoked release of [3H]acetylcholine from striatal slices of reserpine-alpha MPT treated mice evoked by two successive exposures (S1and S2) at 55 and 90 min after the start of perfusion.
[5] = Effect (0.3 uM) on K+-evoked release of [3H]acetylcholine from striatal slices of reserpine-alpha MPT treated mice evoked by two successive exposures (S1and S2) at 55 and 90 min after the start of perfusion.

| SMILES | IC50 [1] [µM] | further results |
| --- | --- | --- |
| NCCc1ccc(O)c(O)c1 [DOPAMINE] | 10 |  |
| C[S+](C)c1ccc2cc(O)c(O)cc2c1.[Br-] |  | Ratio [2]: 0.86; Ratio [3]: 0.98; Ratio [4]: 0.81; Ratio [5]: 0.85 |
| CN(C)CCc1ccc(O)c(O)c1 | 10 |  |
| NC1CCc2cc(O)c(O)cc2C1 (stereo not drawn) | 0.01 |  |
| CC(N)Cc1ccc(O)c(O)c1 (stereo not drawn) | 10 |  |
